In US8729020B2, “Methods for the treatment of aortic fibrosis with VIP fragments” (Vectus Biosystems Pty Ltd, priority 2009, dated 2014):

Tested on: Male SHR rats on 2.2% salt diet
Assay: Effect of VIP/VIP fragment infusion on aortic fibrosis in rat model of fibrosis
Assay type: in vivo
Details: 4 weeks intravenous infusion at 5 pmol/kg/min by osmotic minipump, vs vehicle control, fibrosis quantified as percent surface area
Excerpt: Two animal models of aortic fibrosis were used (animals obtained from Australian Animal Resources, Perth, Western Australia, Australia)
i) Male SHR rats on 2.2% salt diet
In each model the rats were randomised to VIP (1-28), VIP (4-12), VIP (4-16), VIP (4-10), VIP (4-20), VIP (4-24), VIP (10-28), VIP (16-20), VIP (16-24), VIP (16-28), VIP (6-10), VIP (6-12), VIP (6-16), VIP (6-20), VIP (6-24), and VIP (6-28). All peptides were obtained from or synthesised by Auspep, Australia. VIP fragments were dissolved in Hartman's solution for subsequent infusion studies. Commencing at 12 weeks of age, the rats were acclimatized to tail cuff blood pressure measurements and handling for 2 weeks. They then underwent operative insertion of an osmotic minipump (Alzet) which was designed to deliver vehicle alone (Hartman's solution, (Baxter Health Care Corporation)-(Controls)) or VIP, VIP fragment at a dose of 5 pmol/kg/min intravenously.
The infusion was continued for 4 weeks, during which the rats were weighed and their blood pressures measured twice weekly. […]
For quantitation of aortic fibrosis, twenty fields from each aorta were digitized and the amount of fibrosis in each determined as percent surface area using Image-Pro Plus V5.0 software. The mean value for each rat and subsequently for each infusion group was then determined.

Substance: His-Ser-Asp-Ala-Val-Phe-Thr-Asp-Asn-Tyr-Thr-Arg-Leu-Arg-Lys-Gln-Met-Ala-Val-Lys-Lys-Tyr-Leu-Asn-Ser-Ile-Leu-Asn (HSDAVFTDNYTRLRKQMAVKKYLNSILN; listed as Homo sapiens) [VIP]
- aortic fibrosis (fibrosis within the aortic wall): reductions in aortic fibrosis
